What was measured:
KMS-11 = test: Cell viability (MTS) assay, KMS-11; type: cell-based; conditions: Homo sapiens; KMS-11, MTS, 72 hours, mean ± standard deviation
Protocol: Human multiple myeloma cell lines 8226, H929, JJN3, KMH11, KMS11, KMS18, LP1, MM1S, OPM2 and U266 were grown in Iscove modified Dulbecco's medium (IMDM). Human leukemia cell lines K562, OCI-AML2 and U937 were cultured in RPMI-1640 medium. Primary peripheral blood mononuclear cells were isolated from multiple myeloma patients by Ficoll density gradient centrifugation and bone marrow aspirates were obtained from multiple myeloma patients at the Princess Margaret Cancer Centre of the University Health Network (UHN; Toronto, ON, Canada). Primary cells were cultured in IMDM. The collection and use of human tissue for this study was approved by the UHN institutional ethics review board. All cell culture media were obtained from the Ontario Cancer Institute Tissue Culture Media Facility (Toronto, ON, Canada) and were supplemented with 10% fetal calf serum, […] (Hyclone, Logan, Utah). All cells were grown in a humidified incubator at 37° C. with 5% CO2.
Cellular viability was primarily assessed by 3-(4,5-dimethylthiazol-2-yl)-5-(3-carboxymethoxyphenyl)-2-(4-sulfophenyl)-2H-tetrazolium (MTS) assay according to the manufacturer's instructions (Promega; Madison, Wis.). Cells were first seeded at a density of 10,000 cells per well in tissue culture-treated 96-well plates. Two hours after seeding, cells were treated with compounds for 72 hours at concentrations as indicated. As a control, cells were treated with DMSO alone in every assay plate. Following treatment and the MTS assay, cell viability was independently confirmed by reading the optical density (O.D.) at 490 nm and by exclusion of trypan blue stain (Invitrogen; Burlington, ON, Canada). The viability of primary mononuclear cells was determined by staining with Annexin V.
Table 8 summarizes the data of representative compounds of Formula I for cell viability and CT-L proteasome activity with OCI-AML-2 and KMS-11 cell lines.

KM12 = test: NCI screening panel, KM12 (Colon Cancer); type: cell-based, human
Protocol: (§1) Representative compounds of Formula I were screened using the National Cancer Institute (NCI) screening panel, which consists of a panel of human tumor cell lines, representing leukemia, melanoma, and cancers of the lung, colon, ovary, breast, prostate and renal system.
(§2) After 24 h, two plates of each cell line are fixed in situ with TCA, to represent a measurement of the cell population for each cell line at the time of drug addition (Tz). Experimental drugs are solubilised in dimethyl sulfoxide at 400-fold the desired final maximum test concentration and stored frozen prior to use. At the time of drug addition, an aliquot of frozen concentrate is thawed and diluted to twice the desired final maximum test concentration with complete medium containing 50 μg/mL gentamicin. Additional four, 10-fold or ½ log serial dilutions are made to provide a total of five drug concentrations plus control. Aliquots of 100 μl of these different drug dilutions are added to the appropriate microtiter wells already containing 100 μl of medium, resulting in the required final drug concentrations.
(§3) Following drug addition, the plates are incubated for an additional 48 h at 37° C., 5% CO2, 95% air, and 100% relative humidity. For adherent cells, the assay is terminated by the addition of cold TCA (trichloroacetic acid). Cells are fixed in situ by the gentle addition of 50 μl of cold 50% (w/v) TCA (final concentration, 10% TCA) and incubated for 60 minutes at 4° C. The supernatant is discarded, and the plates are washed five times with tap water and air dried. Sulforhodamine B (SRB) solution (100 μl) at 0.4% (w/v) in 1% acetic acid is added to each well, and plates are incubated for 10 minutes at room temperature. After staining, unbound dye is removed by washing five times with 1% acetic acid and the plates are air dried. Bound stain is subsequently solubilised with 10 mM trizma base, and the absorbance is read on an automated plate reader at a wavelength of 515 nm. For suspension cells, the methodology is the same except that the assay is terminated by fixing settled cells at the bottom of the wells by gently adding 50 μl of 80% TCA (final concentration, 16% TCA). Using the seven absorbance measurements [time zero, (Tz), control growth, (C), and test growth in the presence of drug at the five concentration levels (Ti)], the percentage growth is calculated at each of the drug concentrations levels. Percentage growth inhibition is calculated as: [(Ti−Tz)/(C−Tz)]×100 for concentrations for which Ti>/=Tz and [(Ti−Tz)/Tz]×100 for concentrations for which Ti<Tz.
(§4) Three dose response parameters are calculated for each experimental agent. Growth inhibition of 50% (GI50) is calculated from [(Ti−Tz)/(C−Tz)]×100=50, which is the drug concentration resulting in a 50% reduction in the net protein increase (as measured by SRB staining) in control cells during the drug incubation. The drug concentration resulting in total growth inhibition (TGI) is calculated from Ti=Tz. The LC50 (concentration of drug resulting in a 50% reduction in the measured protein at the end of the drug treatment as compared to that at the beginning) indicating a net loss of cells following treatment is calculated from [(Ti−Tz)/Tz]×100=−50. Values are calculated for each of these three parameters if the level of activity is reached. However, if the effect is not reached or is exceeded, the value for that parameter is expressed as greater or less than the maximum or minimum concentration tested.

SNB-19 = test: NCI screening panel, SNB-19 (CNS Cancer); type: cell-based, human
Protocol: as §1, §2, §3, §4

M14 = test: NCI screening panel, M14 (Melanoma); type: cell-based, human
Protocol: as §1, §2, §3, §4

SK-MEL-2 = test: NCI screening panel, SK-MEL-2 (Melanoma); type: cell-based, human
Protocol: as §1, §2, §3, §4

NCI/ADR-RES = test: NCI screening panel, NCI/ADR-RES (Ovarian Cancer); type: cell-based, human
Protocol: as §1, §2, §3, §4

Row | Structure (SMILES) | IC50 (KMS-11) [nM] | Log10GI50 (KM12) | Log10LC50 (KM12) | Log10TGI50 (KM12) | Log10GI50 (SNB-19) | Log10LC50 (SNB-19) | Log10TGI50 (SNB-19) | Log10GI50 (M14) | Log10LC50 (M14) | Log10TGI50 (M14) | Log10GI50 (SK-MEL-2) | Log10LC50 (SK-MEL-2) | Log10TGI50 (SK-MEL-2) | Log10GI50 (NCI/ADR-RES) | Log10LC50 (NCI/ADR-RES) | Log10TGI50 (NCI/ADR-RES)
1 | CC(C)C[C@H](NC(=O)[C@H](COC(F)F)NC(=O)CN1CCOCC1)C(=O)N[C@@H](COC(F)F)C(=O)N[C@@H](CC(C)C)C(=O)[C@@]1(C)CO1 [Example 1, (2S)—N-[(1S)-1-(difluoromethoxymethyl)-2-[[(1S)-3-methyl-1-[(2R)-2-methyloxirane-2-carbonyl]butyl]amino]-2-oxo-ethyl]-2-[[(2S)-3-(difluoromethoxy)-2-[(2-morpholinoacetyl)amino]propanoyl]amino]-4-methyl-pentanamide] | 26.6 ± 8.47 | −7.76 | −7.10 | −7.43 | −7.22 | >−4.00 | >−4.00 | −7.25 | >−4.00 | −6.31 | −7.60 | >−4.00 | −7.03 | −5.10 | >−4.00 | >−4.00
2 | CC(C)C[C@H](NC(=O)[C@H](COC(F)F)NC(=O)CN1CCOCC1)C(=O)N[C@@H](Cc1ccccc1)C(=O)N[C@@H](CC(C)C)C(=O)[C@@]1(C)CO1 [Example 2, (2S)-N-[(1S)-1-benzyl-2-[[(1S)-3-methyl-1-[(2R)-2-methyloxirane-2-carbonyl]butyl]-amino]-2-oxo-ethyl]-2-[[(2S)-3-(difluoromethoxy)-2-[(2-morpholinoacetyl)amino]propanoyl]amino]-4-methyl-pentanamide] | 21.9 ± 0.342 | −7.85 | −7.01 | −7.43 | −7.18 | >−4.00 | >−4.00 | −7.39 | >−4.00 | −6.26 | −7.66 | >−4.00 | −7.06 | −5.80 | >−4.00 | >−4.00
3 | CC(C)C[C@H](NC(=O)[C@H](COC(F)F)NC(=O)CN1CCOCC1)C(=O)N[C@@H](Cc1ccccc1)C(=O)N[C@@H](Cc1ccccc1)C(=O)[C@@]1(C)CO1 [Example 3, (2S)-N-[(1S)-1-benzyl-2-[[(1S)-1-benzyl-2-[(2R)-2-methyloxiran-2-yl]-2-oxo-ethyl]amino]-2-oxo-ethyl]-2-[[(2S)-3-(difluoromethoxy)-2-[(2-morpholinoacetyl)-amino]propanoyl]amino]-4-methyl-pentan-amide] | 17.6 ± 0.629 | <−8.00 | −7.16 | −7.74 | −7.66 | >−4.00 | −4.54 | −7.69 | >−4.00 | −6.54 | −7.92 | >−4.00 | −7.19 | −5.86 | >−4.00 | >−4.00
4 | CC(C)C[C@H](NC(=O)[C@H](COC(F)F)NC(=O)CN1CCOCC1)C(=O)N[C@@H](COC(F)F)C(=O)N[C@@H](Cc1ccccc1)C(=O)[C@@]1(C)CO1 [Example 4, (2S)-N-[(1S)-2-[[(1S)-1-benzyl-2-[(2R)-2-methyloxiran-2-yl]-2-oxo-ethyl]amino]-1-(difluoromethoxymethyl)-2-oxo-ethyl]-2-[[(2S)-3-(difluoromethoxy)-2-[(2-mor-pholinoacetyl)amino]propanoyl]amino]-4 methyl-pentanamide] | 33.9 ± 2.11 | −7.70 | −6.44 | −7.29 | −7.14 | >−4.00 | >−4.00 | −6.97 | >−4.00 | −5.66 | −7.57 | >−4.00 | −6.86 | −5.19 | >−4.00 | >−4.00
5 | CC(C)C[C@H](NC(=O)[C@H](COC(F)F)NC(=O)[C@H](COC(F)F)NC(=O)[C@H](CCc1ccccc1)NC(=O)CN1CCOCC1)C(=O)[C@@]1(C)CO1 [Example 7, (2S)-N-[(1S)-1-(difluoromethoxymethyl)-2-[[(1S)-1-(difluoromethoxymethyl)-2-[[(1S)-3-methyl-1-[(2R)-2-methyloxirane-2-carbo-nyl]butyl]amino]-2-oxo-ethyl]amino]-2-oxo-ethyl]-2-[(2-morpholinoacetyl)amino]-4-phenyl-butanamide] | 19.8 ± 0.532 | −7.78 | −7.11 | −7.45 | −7.14 | >−4.00 | >−4.00 | −7.11 | >−4.00 | −5.70 | −7.54 | >−4.00 | −6.86 | −5.16 | >−4.00 | >−4.00
6 | CC(C)C[C@H](NC(=O)[C@H](Cc1ccccc1)NC(=O)[C@H](COC(F)F)NC(=O)[C@H](COC(F)F)NC(=O)CN1CCOCC1)C(=O)[C@@]1(C)CO1 [Example 11, (2S)-2-[[(2S)-3-(difluoromethoxy)-2-[[(2S)-3-(difluoromethoxy)-2-[(2-morpholinoacetyl)-amino]propanoyl]amino]propanoyl]amino]-N-[(1S)-3-methyl-1-[(2R)-2-methyloxirane-2-carbonyl]butyl]-3-phenyl-propanamide] | 24.3 ± 0.568 | −7.73 | −7.07 | −7.40 | −7.20 | >−4.00 | >−4.00 | −7.21 | >−4.00 | −5.91 | −7.48 | >−4.00 | −6.68 | −5.16 | >−4.00 | >−4.00

— patent publication US20150218212A1, “FLUORINATED EPOXYKETONE-BASED TETRAPEPTIDE COMPOUNDS AND USES THEREOF AS PROTEASOME INHIBITORS” (FLUORINOV PHARMA INC., priority 2012, published 2015)
